Reference: the CheMixHub ionic liquid set

Assay: xn = mol fraction of the nth substance listed
Settings: 288.15 K, 101 kPa

Cc1ncc(C[n+]2csc(CCO)c2C)c(N)n1.Cl.[Cl-] + CCCCCCCCCCCCOS(=O)(=O)[O-].[Na+] + O
Settings | electrical conductivity [S/m]
x2 = 0, x1 = 1.8e-07 | 0.00237
x2 = 0, x1 = 9e-07 | 0.0045
x2 = 0, x1 = 1.8e-06 | 0.00578
x2 = 7.35e-06, x1 = 1.8e-07 | 0.00538
x2 = 7.35e-06, x1 = 9e-07 | 0.0077
x2 = 7.35e-06, x1 = 1.8e-06 | 0.00928
x2 = 1.463e-05, x1 = 1.8e-07 | 0.00837
x2 = 1.463e-05, x1 = 9e-07 | 0.0109
x2 = 1.463e-05, x1 = 1.8e-06 | 0.0127
x2 = 2.18e-05, x1 = 1.8e-07 | 0.0112
x2 = 2.18e-05, x1 = 9e-07 | 0.0139
x2 = 2.18e-05, x1 = 1.8e-06 | 0.016
x2 = 2.901e-05, x1 = 1.8e-07 | 0.0139
x2 = 2.901e-05, x1 = 9e-07 | 0.0169
x2 = 2.901e-05, x1 = 1.8e-06 | 0.0192
x2 = 3.604e-05, x1 = 1.8e-07 | 0.0167
x2 = 3.604e-05, x1 = 9e-07 | 0.0197
x2 = 3.604e-05, x1 = 1.8e-06 | 0.0224
x2 = 4.307e-05, x1 = 1.8e-07 | 0.0194
x2 = 4.307e-05, x1 = 9e-07 | 0.0225
x2 = 4.307e-05, x1 = 1.8e-06 | 0.0255
x2 = 4.991e-05, x1 = 1.8e-07 | 0.0221
x2 = 4.991e-05, x1 = 9e-07 | 0.0253
x2 = 4.991e-05, x1 = 1.8e-06 | 0.0285
x2 = 5.676e-05, x1 = 1.8e-07 | 0.0248
x2 = 5.676e-05, x1 = 9e-07 | 0.0281
x2 = 5.676e-05, x1 = 1.8e-06 | 0.0314
x2 = 6.361e-05, x1 = 1.8e-07 | 0.0274
x2 = 6.361e-05, x1 = 9e-07 | 0.0307
x2 = 6.361e-05, x1 = 1.8e-06 | 0.0342
x2 = 7.027e-05, x1 = 1.8e-07 | 0.0299
x2 = 7.027e-05, x1 = 9e-07 | 0.0332
x2 = 7.028e-05, x1 = 1.8e-06 | 0.037
x2 = 7.694e-05, x1 = 1.8e-07 | 0.0324
x2 = 7.694e-05, x1 = 9e-07 | 0.0357
x2 = 7.694e-05, x1 = 1.8e-06 | 0.0397
x2 = 8.361e-05, x1 = 1.8e-07 | 0.0349
x2 = 8.361e-05, x1 = 9e-07 | 0.0382
x2 = 8.361e-05, x1 = 1.8e-06 | 0.0425
x2 = 9.009e-05, x1 = 1.8e-07 | 0.0374
x2 = 9.009e-05, x1 = 9e-07 | 0.0407
x2 = 9.009e-05, x1 = 1.8e-06 | 0.0452
x2 = 9.658e-05, x1 = 1.8e-07 | 0.0398
x2 = 9.658e-05, x1 = 9e-07 | 0.0431
x2 = 9.658e-05, x1 = 1.8e-06 | 0.0478
x2 = 0.0001031, x1 = 1.8e-07 | 0.0422
x2 = 0.0001031, x1 = 9e-07 | 0.0456
x2 = 0.0001031, x1 = 1.8e-06 | 0.0503
x2 = 0.0001094, x1 = 1.8e-07 | 0.0446
x2 = 0.0001094, x1 = 9e-07 | 0.048
x2 = 0.0001094, x1 = 1.8e-06 | 0.0522
x2 = 0.0001157, x1 = 1.8e-07 | 0.0465
x2 = 0.0001157, x1 = 9e-07 | 0.0502
x2 = 0.0001157, x1 = 1.8e-06 | 0.0539
x2 = 0.000122, x1 = 1.8e-07 | 0.0486
x2 = 0.000122, x1 = 9e-07 | 0.0523
x2 = 0.000122, x1 = 1.8e-06 | 0.0555
x2 = 0.0001281, x1 = 1.8e-07 | 0.0508
x2 = 0.0001281, x1 = 9e-07 | 0.0541
x2 = 0.0001281, x1 = 1.8e-06 | 0.0571
x2 = 0.0001342, x1 = 1.8e-07 | 0.0527
x2 = 0.0001342, x1 = 9e-07 | 0.0558
x2 = 0.0001342, x1 = 1.8e-06 | 0.0587
x2 = 0.0001404, x1 = 1.8e-07 | 0.0545
x2 = 0.0001404, x1 = 9e-07 | 0.0573
x2 = 0.0001404, x1 = 1.8e-06 | 0.0601
x2 = 0.0001465, x1 = 1.8e-07 | 0.0561
x2 = 0.0001465, x1 = 9e-07 | 0.0587
x2 = 0.0001465, x1 = 1.8e-06 | 0.0614
x2 = 0.0001524, x1 = 1.8e-07 | 0.0577
x2 = 0.0001524, x1 = 9e-07 | 0.0599
x2 = 0.0001524, x1 = 1.8e-06 | 0.0625
x2 = 0.0001584, x1 = 1.8e-07 | 0.059
x2 = 0.0001584, x1 = 9e-07 | 0.0611
x2 = 0.0001584, x1 = 1.8e-06 | 0.0636
x2 = 0.0001641, x1 = 1.8e-07 | 0.0602
x2 = 0.0001641, x1 = 9e-07 | 0.0622
x2 = 0.0001641, x1 = 1.8e-06 | 0.0647
x2 = 0.0001699, x1 = 1.8e-07 | 0.0613
x2 = 0.0001699, x1 = 9e-07 | 0.0633
x2 = 0.0001699, x1 = 1.8e-06 | 0.0657
x2 = 0.0001757, x1 = 1.8e-07 | 0.0622
x2 = 0.0001757, x1 = 9e-07 | 0.0643
x2 = 0.0001757, x1 = 1.8e-06 | 0.0667
x2 = 0.0001814, x1 = 1.8e-07 | 0.0632
x2 = 0.0001814, x1 = 9e-07 | 0.0654
x2 = 0.0001814, x1 = 1.8e-06 | 0.0677
x2 = 0.000187, x1 = 1.8e-07 | 0.0641
x2 = 0.000187, x1 = 9e-07 | 0.0664
x2 = 0.000187, x1 = 1.8e-06 | 0.0687
x2 = 0.0001928, x1 = 1.8e-07 | 0.0649
x2 = 0.0001928, x1 = 9e-07 | 0.0673
x2 = 0.0001928, x1 = 1.8e-06 | 0.0697
x2 = 0.0001982, x1 = 1.8e-07 | 0.0658
x2 = 0.0001982, x1 = 9e-07 | 0.0683
x2 = 0.0001982, x1 = 1.8e-06 | 0.0707
x2 = 0.0002038, x1 = 1.8e-07 | 0.0666
x2 = 0.0002038, x1 = 9e-07 | 0.0692
x2 = 0.0002038, x1 = 1.8e-06 | 0.0716
x2 = 0.0002092, x1 = 1.8e-07 | 0.0673
x2 = 0.0002092, x1 = 9e-07 | 0.0702
x2 = 0.0002092, x1 = 1.8e-06 | 0.0725
x2 = 0.0002147, x1 = 1.8e-07 | 0.0681
x2 = 0.0002148, x1 = 9e-07 | 0.0711
x2 = 0.0002148, x1 = 1.8e-06 | 0.0734
x2 = 0.00022, x1 = 1.8e-07 | 0.0689
x2 = 0.00022, x1 = 9e-07 | 0.072
x2 = 0.00022, x1 = 1.8e-06 | 0.0743
x2 = 0.0002254, x1 = 1.8e-07 | 0.0696
x2 = 0.0002254, x1 = 9e-07 | 0.0729
x2 = 0.0002254, x1 = 1.8e-06 | 0.0752
x2 = 0.0002306, x1 = 1.8e-07 | 0.0703
x2 = 0.0002306, x1 = 9e-07 | 0.0739
x2 = 0.0002306, x1 = 1.8e-06 | 0.0761
x2 = 0.0002358, x1 = 1.8e-07 | 0.071
x2 = 0.0002358, x1 = 9e-07 | 0.0747
x2 = 0.0002358, x1 = 1.8e-06 | 0.077
x2 = 0.0002411, x1 = 1.8e-07 | 0.0717
x2 = 0.0002411, x1 = 9e-07 | 0.0756
x2 = 0.0002411, x1 = 1.8e-06 | 0.0778
